Results as given in patent publication US4603217A, “Ester substituted alkyl-2-(2,6-dichloroanilino)phenyl acetates” (priority 1983, dated 1986).

What was measured:
[1] = tested on: carrageenan edema; experiment: inhibition test of carrageenan edema employing a foot-pad edema method; format: in vivo, male Wister rats; conditions: for ED50: Rattus norvegicus, male Wister rats, foot-pad edema, read-out: ED50 for inhibition for carrageenan edema
Description: Anti-inflammatory action was investigated according to the method of Winter et al [cf. Pro. Soc. Exp. Biol. Med., 111, 544 (1962)] by the inhibition test of carrageenan edema employing a foot-pad edema method using carrageenan as an irritating agent and male Wister rats weighing 130 to 170 g.

[2] = in vivo; conditions: rat, po
Experimental: Gastrointestinal ulcer formation action, which is a principal side effect of an acid anti-inflammatory drug, was investigated according to the method of Okabe et al [cf. […] The compounds of the present invention, IM, DF and acemethacin were suspended in 5% Tween-80 solution and administered orally 1 ml/100 g body weight to the rats, respectively. At 6 hrs after the administration, the state of glandstomach was observed by means of a dissecting microscope whether the ulcer having a diameter more than 1 mm was generated or not.

[3] = tested on: ultraviolet erythema; experiment: inhibition action for ultraviolet erythema; format: in vivo, male Hartley guinea pigs; design: 2 hs after the irradiation, Average ± standard error / 3 hs after the irradiation, Average ± standard error / 5 hs after the irradiation, Average ± standard error: scale not given here; 2 hs after the irradiation, Rate for inhibition / 3 hs after the irradiation, Rate for inhibition / 5 hs after the irradiation, Rate for inhibition: unit not given here; conditions: guinea pigs; for 2 hs after the irradiation, Average ± standard error / 2 hs after the irradiation, Rate for inhibition: 2 hs after irradiation; for 3 hs after the irradiation, Average ± standard error / 3 hs after the irradiation, Rate for inhibition: 3 hs after irradiation; for 5 hs after the irradiation, Average ± standard error / 5 hs after the irradiation, Rate for inhibition: 5 hs after irradiation
Experimental: With respect to Compounds 1 to 3, 15 and 21 which are especially useful as an anti-inflammatory drug, IM and DF, inhibition action for ultraviolet erythema was investigated according to the method of Adames et al [cf. Nature, London, 181, 773 (1958)] using guinea pigs as follows: Male Hartley guinea pigs weighing 250 to 350 g were shaved at their sides the day before and two hrs before the ultraviolet irradiation. To the guinea pigs were administered orally Compounds 1 to 3, 15 and 21, IM and DF in amounts as described in Table 2, respectively. To the control group was administered orally only Tween-80. At 1 hr after the time of administration, the guinea pigs were irradiated at their shaved sides by ultraviolet beam for 40 seconds.
The reaction of the ultraviolet erythema was evaluated at 2 hrs, 3 hrs and 5 hrs after irradiation according to the method of Winder et al [cf. Arch. Int. Pharmacodyn., 116, 261 (1958)]. […] Compounds 1 and 2 show a duration of the pharmacological effect over 5 hrs, contrary to that IM has a duration of 2 hrs.

[4] = Rate of hydrolysis in rat plasma; format: in vitro ADME; conditions: in 1 ml of plasma rat (37° C., incubation for 1 hr)
Experimental: **in 1 ml of plasma rat (37° C., incubation for 1 hr)

[5] = potentiating effect on thiopental-induced sleep in mice; format: in vivo, male ddY mice; conditions: mouse, in vivo, po
Experimental: (§1) Effect on central nervous system, which is another side effect of IM, was investigated according to the potentiating effect on thiopental-induced sleep in mice as follows: Male ddY mice weighing 20 to 24 g were subjected to fasting for 15 hrs. […] At 30 mins after the administration, thiopental sodium was injected intravenously to each of the mice in an amount of 35 mg/l kg body weight, and then, the sleeping time was observed. When the sleeping time of the mice to which the Test Compound was administered was longer than 2 times that of the control to which only Tween-80 was administered, the given Test Compound was judged to be effective on thiopental-induced sleep potentiating effect.

[6] = tested on: thiopental-induced sleep; experiment: as above; format: in vivo, male ddY mice; conditions: mouse, in vivo
Experimental: as §1

[7] = in vivo; conditions: mouse, po

COc1ccc2c(c1)c(CC(=O)OCCOC(C)=O)c(C)n2C(=O)c1ccc(Cl)cc1 [Compound 3, 2-(Acetoxy)ethyl[1-(p-chlorobenzoyl)-5-methoxy-2-methyl-3-indolyl]acetate]
ED50 [1]: 6 mg/kg | TD50 at 6 h [2]: 15 mg/kg | 2 hs after the irradiation, Average ± standard error ([3]; 3 mg/kg orally): 0.5 ± 0.224 | 2 hs after the irradiation, Rate for inhibition ([3]; 3 mg/kg orally): 81.3 | 3 hs after the irradiation, Average ± standard error ([3]; 3 mg/kg orally): 2.5 ± 0.224 | 3 hs after the irradiation, Rate for inhibition ([3]; 3 mg/kg orally): 11.7 | 5 hs after the irradiation, Average ± standard error ([3]; 3 mg/kg orally): 2.83 ± 0.167 | 5 hs after the irradiation, Rate for inhibition ([3]; 3 mg/kg orally): 0 | 2 hs after the irradiation, Average ± standard error ([3]; 10 mg/kg orally): 0.67 ± 0.333 | 2 hs after the irradiation, Rate for inhibition ([3]; 10 mg/kg orally): 74.9 | 3 hs after the irradiation, Average ± standard error ([3]; 10 mg/kg orally): 2.3 ± 0.211 | 3 hs after the irradiation, Rate for inhibition ([3]; 10 mg/kg orally): 18.7 | 5 hs after the irradiation, Average ± standard error ([3]; 10 mg/kg orally): 2.50 ± 0.224 | 5 hs after the irradiation, Rate for inhibition ([3]; 10 mg/kg orally): 11.7 | metabolised at 1 h [4]: 97.3% | ED50 [5]: 600 mg/kg | potentiating effect on thiopental-induced sleep relative to IM [6]: 1/5.7 | LD50 [7]: 65 mg/kg

C/C=C/C(=O)OCOC(=O)Cc1c(C)n(C(=O)c2ccc(Cl)cc2)c2ccc(OC)cc12 [Compound 1, Crotonoyloxymethyl[1-(p-chlorobenzoyl)-5-methoxy-2-methyl-3-indolyl]acetate]
ED50 [1]: 6 mg/kg | anti-inflammatory activity compared with IM ([1]; relative to IM): equal anti-inflammatory activity to IM | TD50 at 6 h [2]: 15 mg/kg | 2 hs after the irradiation, Average ± standard error ([3]; 3 mg/kg orally): 1.50 ± 0.337 | 2 hs after the irradiation, Rate for inhibition ([3]; 3 mg/kg orally): 43.8 | 3 hs after the irradiation, Average ± standard error ([3]; 3 mg/kg orally): 2.08 ± 0.193 | 3 hs after the irradiation, Rate for inhibition ([3]; 3 mg/kg orally): 26.5 | 5 hs after the irradiation, Average ± standard error ([3]; 3 mg/kg orally): 1.92 ± 0.193 | 5 hs after the irradiation, Rate for inhibition ([3]; 3 mg/kg orally): 32.2 | 2 hs after the irradiation, Average ± standard error ([3]; 10 mg/kg orally): 1.17 ± 0.322 | 2 hs after the irradiation, Rate for inhibition ([3]; 10 mg/kg orally): 56.2 | 3 hs after the irradiation, Average ± standard error ([3]; 10 mg/kg orally): 1.58 ± 0.288 | 3 hs after the irradiation, Rate for inhibition ([3]; 10 mg/kg orally): 44.2 | 5 hs after the irradiation, Average ± standard error ([3]; 10 mg/kg orally): 1.92 ± 0.229 | 5 hs after the irradiation, Rate for inhibition ([3]; 10 mg/kg orally): 32.2 | duration of the pharmacological effect ([3]; ultraviolet erythema, oral): over 5 hrs | metabolised at 1 h [4]: 88.9% | ED50 [5]: 455 mg/kg | potentiating effect on thiopental-induced sleep relative to IM [6]: 1/4.3 | LD50 [7]: 105 mg/kg
